Assays:
RSL = RSL (Ralstonia pseudosolanacearum, UniProt Q8XXK6); settings: 250 µM; 250 μM ligand, 25 μM protein; absolute Tm1, not a shift (ligand-free reference in the 2nd table, row 4); 20 mM Tris/HCl pH 7.5, 100 mM NaCl
RSL-MOA [1] = format: binding, Ralstonia nicotianae; Marasmius oreades; settings: 20 mM Tris/HCl pH 7.5, 100 mM NaCl, 25 °C, one-site model, titrated into the RSL-MOA/Galα1-3Gal complex
RSL-MOA [2] = format: binding, Ralstonia nicotianae; Marasmius oreades; settings: 50 nM RSL-MOA pre-incubated with fucose; 10 mM HEPES pH 7.5, 100 mM NaCl, 0.05 % Tween 20, 25 °C; RSL site; competitive with immobilised fucose

SMILES	Tm1 (°C) (RSL)	Kd (RSL-MOA [1])	IC50 (RSL-MOA [2])
CO[C@@H]1O[C@@H](C)[C@@H](O)[C@@H](O)[C@@H]1O [α-methyl fucoside]	101.6 °C	0.4 µM	
C[C@@H]1OC(O)[C@@H](O)[C@H](O)[C@@H]1O (stereo partly drawn) [L-fucose]			7.8 µM

— PMC9668655 (Computational and Structural Biotechnology Journal, 2022)
